# Patent US6214872A, “Aryloxyarylsulfonylamino hydroxamic acid derivatives” (Pfizer Inc., priority 1999, dated 2001)
# Values joined by “and” are separate entries in the source; they are usually repeats but may differ in a detail not shown here. Equal values may be shown once.
# Assays:
# [1] = molecular target: T1, Human Collagenase (MMP-1) (Homo sapiens, UniProt P03956); test: Inhibition of Human Collagenase (MMP-1); type: biochemical; details: Table 1; human recombinant collagenase, fluorogenic substrate, room temperature
# T1 sequence (P03956 100-469): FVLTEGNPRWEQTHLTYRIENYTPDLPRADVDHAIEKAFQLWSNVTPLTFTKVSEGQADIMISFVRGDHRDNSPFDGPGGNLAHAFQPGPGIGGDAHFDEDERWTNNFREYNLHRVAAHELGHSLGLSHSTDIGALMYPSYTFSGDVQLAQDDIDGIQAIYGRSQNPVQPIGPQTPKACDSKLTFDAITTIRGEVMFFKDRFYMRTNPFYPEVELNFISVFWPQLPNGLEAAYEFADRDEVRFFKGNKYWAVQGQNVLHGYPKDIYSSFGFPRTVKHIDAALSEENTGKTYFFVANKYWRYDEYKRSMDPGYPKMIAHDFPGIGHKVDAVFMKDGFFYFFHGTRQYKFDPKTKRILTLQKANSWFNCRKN
# Description: Human recombinant collagenase is activated with trypsin using the following ratio: 10 mg trypsin per 100 mg of collagenase. The trypsin and collagenase are incubated at room temperature for 10 minutes then a five fold excess (50 mg/10 mg trypsin) of soybean trypsin inhibitor is added. 10 mM stock solutions of inhibitors are made up in dimethyl sulfoxide and then diluted using the following Scheme: 10 mM→120 μM→12 μM→1.2 μM→0.12 μM Twenty-five microliters of each concentration is then added in triplicate to appropriate wells of a 96 well microfluor plate. The final concentration of inhibitor will be a 1:4 dilution after addition of enzyme and substrate. Positive controls (enzyme, no inhibitor) are set up in wells D1-D6 and blanks (no enzyme, no inhibitors) are set in wells D7-D12. Collagenase is diluted to 400 ng/ml and […] is then added to appropriate wells of the microfluor plate. Final concentration of collagenase in the assay is 100 ng/ml. Substrate ([…]) is made as a 5 mM stock in dimethyl sulfoxide and then diluted to […] in assay buffer. The assay is initiated by the addition of […] substrate per well of the microfluor plate to give a final concentration of 10 mM. Fluorescence readings (360 nm excitation, 460 nm emission) were taken at time 0 and then at 20 minute intervals. The assay is conducted at room temperature with a typical assay time of 3 hours. Fluorescence vs time is then plotted for both the blank and collagenase containing samples (data from triplicate determinations is averaged). […] The zero time is used as a blank for each compound at each concentration and these values are subtracted from the 120 minute data. Data is plotted as inhibitor concentration vs % control (inhibitor fluorescence divided by fluorescence of collagenase alone×100). IC50 's are determined from the concentration of inhibitor that gives a signal that is 50% of the control. If IC50 's are reported to be <0.03 mM then the inhibitors are assayed at concentrations of 0.3 mM, 0.03 mM, […] and 0.003 mM.
# [2] = molecular target: Human recombinant MMP-13 (collagenase 3) (Homo sapiens, UniProt P45452); test: Inhibition of MMP-13; type: biochemical; details: human recombinant MMP-13, fluorogenic substrate
# Description: Human recombinant MMP-13 is activated with 2 mM APMA (p-aminophenyl mercuric acetate) for 1.5 hours, at 37° C. and is diluted to […] in assay buffer (50 mM Tris, pH 7.5, 200 mM sodium chloride, 5 mM calcium chloride, […], 0.02% brij). Twenty-five microliters of diluted enzyme is added per well of a 96 well microfluor plate. The enzyme is then diluted in a 1:4 ratio in the assay by the addition of inhibitor and substrate to give a final concentration in the assay of […]. 10 mM stock solutions of inhibitors are made up in dimethyl sulfoxide and then diluted in assay buffer as per the inhibitor dilution scheme for inhibition of human collagenase (MMP-1): Twenty-five microliters of each concentration is added in triplicate to the microfluor plate. The final concentrations in the assay are 30 mM, 3 mM, 0.3 mM, and 0.03 mM. Substrate ([…]) is prepared as for inhibition of human collagenase (MMP-1) and […] is added to each well to give a final assay concentration of 10 mM. Fluorescence readings (360 nm excitation; 450 emission) are taken at time 0 and every 5 minutes for 1 hour. Positive controls consist of enzyme and substrate with no inhibitor and blanks consist of substrate only. IC50 's are determined as per inhibition of human collagenase (MMP-1). If IC50 's are reported to be less than […], inhibitors are then assayed at final concentrations of 0.3 mM, 0.03 mM, 0.003 mM and 0.0003 mM.
Structure (SMILES),IC50 [1],IC50 [2]
"CCOC(=O)CCN(C1(C(=O)NO)CCCC1)S(=O)(=O)c1ccc(Oc2ccc(F)cc2)cc1 [Example 1, 3-[[4-(4-FLUOROPHENOXY)BENZENESULFONYL]-(1-HYDROXY-CARBAMOYL CYCLOPENTYL)AMINO]-PROPIONIC ACID ETHYL ESTER]",0.1 µM,0.0009 µM
"COc1ccc(S(=O)(=O)N(CCC(=O)O)C(C(=O)NO)C2CCCCC2)cc1 (centres unmarked) [cyclohexyl, hydrogen, hydrogen, methoxy]",0.018 µM and 0.022 µM,0.004 µM and 0.002 µM
"COc1ccc(S(=O)(=O)N(CCC(=O)O)C2(C(=O)NO)CCCC2)cc1 [cyclopentyl, --, hydrogen, methoxy]",0.8 µM and 0.7 µM,0.021 µM and 0.025 µM
"COc1ccc(S(=O)(=O)N(CCC(=O)O)C(C)(C)C(=O)NO)cc1 [methyl, methyl, hydrogen, methoxy]",12 µM,0.59 µM and 0.73 µM
